Measured values from ChEMBL document CHEMBL1151921 (Bioorg Med Chem, 2009).

Tests used:
D(2) dopamine receptor = D(2) dopamine receptor (Rattus norvegicus, UniProt P61169); assay: Displacement of [3H]spiperone from rat dopamine D2L receptor expressed in HEK293 cells; assay type: cell-based
D(3) dopamine receptor = D(3) dopamine receptor (Rattus norvegicus, UniProt P19020); assay: biochemical
[1] = molecular target: D(2) dopamine receptor (Homo sapiens) (UniProt P14416); assay: Activity at human dopamine D2L receptor expressed in CHO cells assessed as stimulation of [35S]GTPgammaS binding relative to dopamine; assay type: functional, cell-based
D(2) dopamine receptor (Homo sapiens), sequence (P14416 whole entry): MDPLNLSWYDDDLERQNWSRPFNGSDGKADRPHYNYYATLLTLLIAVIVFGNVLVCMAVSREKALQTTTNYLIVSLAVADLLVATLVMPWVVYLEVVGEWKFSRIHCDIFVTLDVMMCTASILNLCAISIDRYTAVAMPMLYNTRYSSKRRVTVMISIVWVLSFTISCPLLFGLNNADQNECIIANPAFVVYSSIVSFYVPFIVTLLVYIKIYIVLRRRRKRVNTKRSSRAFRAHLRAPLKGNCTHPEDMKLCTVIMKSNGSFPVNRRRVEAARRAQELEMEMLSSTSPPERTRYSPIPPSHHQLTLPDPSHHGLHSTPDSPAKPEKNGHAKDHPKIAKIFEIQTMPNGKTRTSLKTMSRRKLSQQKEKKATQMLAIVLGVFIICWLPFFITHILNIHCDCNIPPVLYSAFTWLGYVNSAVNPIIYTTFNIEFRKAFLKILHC

D(2) dopamine receptor, sequence (P61169 whole entry): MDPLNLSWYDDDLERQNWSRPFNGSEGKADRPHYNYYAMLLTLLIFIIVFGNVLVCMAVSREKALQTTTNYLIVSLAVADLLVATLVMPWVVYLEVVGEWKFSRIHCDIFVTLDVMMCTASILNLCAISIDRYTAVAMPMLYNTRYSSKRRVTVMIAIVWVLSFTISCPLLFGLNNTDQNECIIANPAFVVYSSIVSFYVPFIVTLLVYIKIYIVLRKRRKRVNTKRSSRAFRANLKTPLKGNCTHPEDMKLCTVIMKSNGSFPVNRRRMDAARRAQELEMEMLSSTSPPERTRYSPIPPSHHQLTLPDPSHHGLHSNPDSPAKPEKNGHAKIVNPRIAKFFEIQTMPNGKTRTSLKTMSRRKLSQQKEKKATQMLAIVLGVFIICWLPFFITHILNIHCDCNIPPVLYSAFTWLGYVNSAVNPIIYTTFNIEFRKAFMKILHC
D(3) dopamine receptor, sequence (P19020 whole entry): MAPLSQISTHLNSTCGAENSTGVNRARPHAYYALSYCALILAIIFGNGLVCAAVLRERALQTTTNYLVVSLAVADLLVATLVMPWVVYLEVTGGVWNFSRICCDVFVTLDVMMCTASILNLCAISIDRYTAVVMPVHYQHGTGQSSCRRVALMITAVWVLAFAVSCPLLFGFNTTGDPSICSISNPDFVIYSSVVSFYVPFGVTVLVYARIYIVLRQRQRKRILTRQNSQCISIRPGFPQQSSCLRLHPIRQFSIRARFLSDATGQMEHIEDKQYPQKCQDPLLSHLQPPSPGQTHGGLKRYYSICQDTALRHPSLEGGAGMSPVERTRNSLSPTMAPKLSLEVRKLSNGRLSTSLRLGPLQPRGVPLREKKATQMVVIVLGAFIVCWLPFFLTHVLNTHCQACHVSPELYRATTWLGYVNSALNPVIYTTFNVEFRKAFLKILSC

| Structure (SMILES) | Ki (D(2) dopamine receptor) [nM] | Ki (D(3) dopamine receptor) [nM] | Emax [1] [%] |
| --- | --- | --- | --- |
| CCCN(CCN1CCN(Cc2cc3ccccc3[nH]2)CC1)C1CCc2ccc(O)cc2C1 (stereo not drawn) | 100 | 4.82 | – |
| CCCN(CCN1CCN(C(=O)c2ccc3[nH]ccc3c2)CC1)C1CCc2ccc(O)cc2C1 (stereo not drawn) | 65.9 | – | – |
| CCCN(CCN1CCN(C(=O)c2cc3ccccc3o2)CC1)C1CCc2c(O)cccc2C1 (stereo not drawn) | 132 | 5.23 | – |
| CCCN(CCN1CCN(c2ccc(-c3ccccc3)cc2)CC1)[C@H]1CCc2nc(N)sc2C1 | 264 | – | – |
| CCCN(CCC)C1CCc2c(O)cccc2C1 (stereo not drawn) | – | – | 77.8 |
| CCCN(CCN1CCN(C(=O)c2ccc3[nH]ccc3c2)CC1)[C@H]1CCc2c(O)cccc2C1 | – | – | 80 |
